{
  "source": "paper PMC3111092",
  "about": "(Journal of natural products, 2011)",
  "key": {"Escherichia coli": {"system": "Escherichia coli", "test": "Antimicrobial agar plate diffusion assay", "type": "cell-based"}, "Staphylococcus aureus": {"system": "Staphylococcus aureus", "test": "Antimicrobial agar plate diffusion assay", "type": "cell-based"}, "Bacillus subtilis": {"system": "Bacillus subtilis", "test": "Antimicrobial agar plate diffusion assay", "type": "cell-based"}, "NF-κB p65": {"system": "NF-κB p65", "test": "ELISA based NF-κB p65 inhibitory assay in HeLa cells", "type": "cell-based", "settings": "for IC50: Homo sapiens, HeLa, read-out: NF-κB inhibitory activity IC50; for NF-κB inhibition activity (in words): HeLa cells, p65 ELISA"}, "TAK1": {"system": "TAK1", "settings": "reported previously; cited from earlier work"}},
  "data": [
    {"smiles": "CC1(C)S[C@@H]2[C@H](NC(=O)Cc3ccccc3)C(=O)N2[C@H]1C(=O)O", "note": "[penicillin G, reference compound]", "values": [
      {"measurement": "lowest concentration at which biological activity could be detected", "setting": "Escherichia coli; positive controls", "result": 100, "unit": "μg/mL"}
    ]},
    {"smiles": "COc1cc(O)c2c(c1)/C=C/C[C@H](O)[C@H](O)[C@@H](O)/C=C/C[C@H](C)OC2=O", "note": "[compound 2, zeaenol]", "values": [
      {"measurement": "MIC", "setting": "Staphylococcus aureus", "result": "> 500", "unit": "µg/mL"},
      {"measurement": "MIC", "setting": "Bacillus subtilis", "result": "> 500", "unit": "µg/mL"},
      {"measurement": "IC50", "setting": "NF-κB p65", "result": "> 50", "unit": "µM"}
    ]},
    {"smiles": "C[C@H]1C/C=C\\C(=O)[C@@H](O)[C@@H](O)C/C=C/c2cc(O)cc(O)c2C(=O)O1", "note": "[compound 1, 15-O-desmethyl-5Z-7-oxozeaenol]", "values": [
      {"measurement": "NF-κB inhibition activity (in words)", "setting": "NF-κB p65", "result": "sub-micromolar"}
    ]},
    {"smiles": "COc1cc(O)c2c(c1)/C=C/C[C@H](O)[C@H](O)[C@H](O)/C=C/C[C@H](C)OC2=O", "note": "[compound 3, 7-epi-zeaenol]", "values": [
      {"measurement": "MIC", "setting": "Escherichia coli", "result": "> 500", "unit": "µg/mL"},
      {"measurement": "IC50", "setting": "NF-κB p65", "result": "> 50", "unit": "µM"}
    ]},
    {"smiles": "COc1cc(O)c2c(c1)/C=C/C[C@H](O)[C@H](O)C(=O)/C=C\\C[C@H](C)OC2=O", "note": "[compound 5, 5Z-7-oxozeaenol]", "values": [
      {"measurement": "MIC", "setting": "Staphylococcus aureus", "result": "> 500", "unit": "µg/mL"},
      {"measurement": "TAK1 inhibition", "setting": "TAK1", "result": "potent inhibitor"},
      {"measurement": "NF-κB inhibition activity (in words)", "setting": "NF-κB p65", "result": "sub-micromolar"}
    ]}
  ]
}
